Molecules are shown by their SMILES.

In data set [1] the target is Apoptosis regulator Bcl-2 (Homo sapiens, UniProt P10415). In words: Inhibition of FAM-labelled Bax binding to Bcl2 (unknown origin) after 30 mins by fluorescence polarization assay. Background: Polarisation of emitted light reports the rotation of a fluorescent probe.
A further data set relates to RS4-11. In words: Antiproliferative activity against human RS4:11 cells after 72 hrs by MTS assay. As to conditions: RS4-11, 72 h. Format: functional, cell-based. On the technique in general: Formazan colour is commonly taken as a measure of viable cells.
Another data set is filed under the species Homo sapiens. In words: Selectivity factor, ratio of IC50 for Bcl-xL (unknown origin) to Bcl2 (unknown origin).
Another data set deals with Bcl-2-like protein 1 (Homo sapiens, UniProt Q07817). Kind of data set: Inhibition of FAM-labelled Bax binding to Bcl-xL (unknown origin) after 30 mins by fluorescence polarization assay.
In a further data set the test system is Toledo. In words: Antiproliferative activity against human Toledo cells after 72 hrs by MTS assay. Format: functional, cell-based.
Data set [2] deals with Voltage-gated inwardly rectifying potassium channel KCNH2 (Homo sapiens, UniProt Q12809). Kind of data set: Inhibition of human ERG.
A short description of data set [3]: Efflux ratio of apparent permeability across […] to apical side in human Caco2 cells at 20 uM. As to conditions: Caco-2. Format: ADME, cell-based. For orientation: Caco-2 cells form a polarised layer with tight junctions and transporters.
Data set [4] is described as follows: Apparent permeability across basolateral to apical side in human Caco2 cells at 20 uM. Format: ADME, cell-based. As to conditions: Caco-2.
Data set [5] can be described thus: Apparent permeability across apical to basolateral side in human Caco2 cells at 20 uM. In kind it is ADME, cell-based. As to conditions: Caco-2.

Chain of Apoptosis regulator Bcl-2 (P10415 whole entry): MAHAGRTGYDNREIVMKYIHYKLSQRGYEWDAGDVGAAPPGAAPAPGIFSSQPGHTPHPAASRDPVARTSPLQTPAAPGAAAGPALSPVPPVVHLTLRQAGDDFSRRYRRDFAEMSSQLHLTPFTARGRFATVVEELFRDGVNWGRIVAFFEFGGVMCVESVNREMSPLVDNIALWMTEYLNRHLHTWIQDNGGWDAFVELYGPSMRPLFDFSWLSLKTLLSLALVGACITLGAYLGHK
Chain of Bcl-2-like protein 1 (Q07817 whole entry): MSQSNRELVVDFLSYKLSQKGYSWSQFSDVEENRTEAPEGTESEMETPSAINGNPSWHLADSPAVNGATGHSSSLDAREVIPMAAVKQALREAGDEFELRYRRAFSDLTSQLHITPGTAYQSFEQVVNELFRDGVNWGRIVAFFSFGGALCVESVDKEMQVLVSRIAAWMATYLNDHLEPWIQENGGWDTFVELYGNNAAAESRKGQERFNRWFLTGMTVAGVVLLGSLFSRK
Chain of Voltage-gated inwardly rectifying potassium channel KCNH2 (Q12809 whole entry): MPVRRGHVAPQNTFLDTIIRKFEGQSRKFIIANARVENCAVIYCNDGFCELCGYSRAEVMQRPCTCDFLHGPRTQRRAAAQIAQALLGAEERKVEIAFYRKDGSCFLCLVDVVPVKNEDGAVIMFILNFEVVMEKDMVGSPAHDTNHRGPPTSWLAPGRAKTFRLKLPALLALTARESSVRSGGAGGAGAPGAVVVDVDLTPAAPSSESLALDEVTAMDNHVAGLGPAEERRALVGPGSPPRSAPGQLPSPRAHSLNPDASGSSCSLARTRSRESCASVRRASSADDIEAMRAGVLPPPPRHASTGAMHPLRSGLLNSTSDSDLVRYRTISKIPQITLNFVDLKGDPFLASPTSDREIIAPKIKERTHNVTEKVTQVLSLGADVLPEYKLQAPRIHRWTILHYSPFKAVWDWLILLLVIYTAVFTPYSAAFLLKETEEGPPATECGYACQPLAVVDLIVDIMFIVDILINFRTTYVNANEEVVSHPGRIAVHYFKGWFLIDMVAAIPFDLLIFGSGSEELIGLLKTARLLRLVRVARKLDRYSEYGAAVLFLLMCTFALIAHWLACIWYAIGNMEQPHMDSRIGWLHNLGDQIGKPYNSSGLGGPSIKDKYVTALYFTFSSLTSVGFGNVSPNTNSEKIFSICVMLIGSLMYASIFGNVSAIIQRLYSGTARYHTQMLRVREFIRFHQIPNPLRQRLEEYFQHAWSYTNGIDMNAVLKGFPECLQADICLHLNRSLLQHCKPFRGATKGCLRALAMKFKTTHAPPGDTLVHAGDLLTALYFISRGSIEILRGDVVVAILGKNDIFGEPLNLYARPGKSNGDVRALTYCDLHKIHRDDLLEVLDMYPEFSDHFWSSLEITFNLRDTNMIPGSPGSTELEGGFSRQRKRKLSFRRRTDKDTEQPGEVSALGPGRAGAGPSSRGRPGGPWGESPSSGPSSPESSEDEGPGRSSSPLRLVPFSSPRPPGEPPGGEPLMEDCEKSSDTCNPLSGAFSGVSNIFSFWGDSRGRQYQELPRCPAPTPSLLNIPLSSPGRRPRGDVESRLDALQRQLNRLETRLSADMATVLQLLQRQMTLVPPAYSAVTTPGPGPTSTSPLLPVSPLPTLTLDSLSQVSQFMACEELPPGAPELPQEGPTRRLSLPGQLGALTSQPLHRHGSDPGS

`C[C@@H]1CC[C@H]2[C@@H](C)C(OCCN3CCN(c4ccc(C(=O)NS(=O)(=O)c5ccc(NCC6CCOCC6)c([N+](=O)[O-])c5)c(Oc5cnc6[nH]ccc6c5)c4)C[C@H]3CO)O[C@@H]3O[C@@]4(C)CC[C@@H]1[C@]32OO4` (stereo partly drawn): the IC50 in [1] was 67.1 nM; with RS4-11 it was > 1000 nM; at Bcl-2-like protein 1 it was > 1000 nM; with Toledo, > 1000 nM. Besides, the Ratio IC50 in the data set filed under Homo sapiens was found to be 14.9.
On to `CO[C@H]1OC2O[C@@]3(C)CC[C@H]4[C@H](C)CC[C@@H]([C@]1(C)CC(=O)N1CCN(c5ccc(C(=O)NS(=O)(=O)c6ccc(NCC7CCOCC7)c([N+](=O)[O-])c6)c(Oc6cnc7[nH]ccc7c6)c5)CC1)[C@@]24OO3` (stereo partly drawn), for which the IC50 in [1] is 34.7 nM; on Bcl-2-like protein 1, > 1000 nM. In the data set filed under Homo sapiens, the Ratio IC50 was > 28.8.
As to `C[C@H]1[C@@H](CC(=O)N2CCN(c3ccc(C(=O)NS(=O)(=O)c4ccc(NCC5CCOCC5)c([N+](=O)[O-])c4)c(Oc4cnc5[nH]ccc5c4)c3)CC2)O[C@@H]2O[C@@]3(C)CC[C@H]4[C@H](C)CC[C@@H]1[C@@]24OO3`, the results for the half-inhibitory concentration (IC50) (in data set [1]; on Bcl-2-like protein 1) were 11.9 nM and 109 nM, respectively. Further, the Ratio IC50 in the data set filed under Homo sapiens was found to be 9.16.
Turning to `C[C@H]1[C@@H](OCCN2CCN(c3ccc(C(=O)NS(=O)(=O)c4ccc(NCC5CCOCC5)c([N+](=O)[O-])c4)c(Oc4cnc5[nH]ccc5c4)c3)CC2)O[C@@H]2O[C@@]3(C)CC[C@H]4[C@H](C)CC[C@@H]1[C@@]24OO3`, the concentration for half-maximal inhibition (IC50) in data set [1] was 5 nM; in the data set with RS4-11 it was 520 nM; in data set [2], > 40000 nM; on Bcl-2-like protein 1, 279 nM; with Toledo, 950 nM. In the data set filed under Homo sapiens, the Ratio IC50 is 55.3. The efflux ratio at 20 µM in data set [3] stood at 28.8. Moreover, the basolateral-to-apical permeability (Papp B→A) at 20 µM in data set [4] is 6.07 ×10⁻⁶ cm/s. For the same compound, the Papp A→B at 20 µM in data set [5] came to 0.21 ×10⁻⁶ cm/s.
For the compound `C[C@@H]1CC[C@H]2C(CN3CCN(c4ccc(C(=O)NS(=O)(=O)c5ccc(NCC6CCOCC6)c([N+](=O)[O-])c5)c(Oc5cnc6[nH]ccc6c5)c4)CC3)=C(C(F)(F)F)O[C@@H]3O[C@@]4(C)CC[C@@H]1[C@]32O4`, the half-maximal inhibitory concentration (IC50) in [1] came to 2.8 nM; in the data set with RS4-11, 1900 nM; at Bcl-2-like protein 1, 970 nM; in the data set on Toledo, 7400 nM. The Ratio IC50 in the data set filed under Homo sapiens stood at 343.
On to `C[C@H]1[C@@H](CCN2CCN(c3ccc(C(=O)NS(=O)(=O)c4ccc(NCC5CCOCC5)c([N+](=O)[O-])c4)c(Oc4cnc5[nH]ccc5c4)c3)CC2)O[C@@H]2O[C@@]3(C)CC[C@H]4[C@H](C)CC[C@@H]1[C@@]24OO3`, for which the results for the IC50 (in data set [1]; at Bcl-2-like protein 1) were 9.7 nM and > 1000 nM, respectively. Also, in the data set filed under Homo sapiens, the Ratio IC50 was > 103.
On to `C[C@@H]1CC[C@H]2C(CN3CCN(c4ccc(C(=O)NS(=O)(=O)c5ccc(NCC6CCOCC6)c([N+](=O)[O-])c5)c(Oc5cnc6[nH]ccc6c5)c4)CC3)=C(C(F)(F)F)O[C@@H]3O[C@@]4(C)CC[C@@H]1[C@]32OO4`, for which the IC50 in data set [1] was 6.2 nM; with RS4-11, > 1000 nM; at Bcl-2-like protein 1, 71.9 nM; in the data set on Toledo it was > 1000 nM. In addition, in the data set listed under Homo sapiens, the Ratio IC50 came to 11.7.
Take `C[C@H]1[C@@H](CCCN2CCN(c3ccc(C(=O)NS(=O)(=O)c4ccc(NCC5CCOCC5)c([N+](=O)[O-])c4)c(Oc4cnc5[nH]ccc5c4)c3)CC2)O[C@@H]2O[C@@]3(C)CC[C@H]4[C@H](C)CC[C@@H]1[C@@]24OO3`: the IC50 in data set [1] was 1.2 nM; with RS4-11 it was 890 nM; in data set [2], > 40000 nM; on Bcl-2-like protein 1, > 1000 nM; with Toledo, 880 nM. The Ratio IC50 in the data set filed under Homo sapiens was > 806.
Regarding `C[C@H]1[C@H](N(C)CCN2CCN(c3ccc(C(=O)NS(=O)(=O)c4ccc(NCC5CCOCC5)c([N+](=O)[O-])c4)c(Oc4cnc5[nH]ccc5c4)c3)CC2)O[C@@H]2O[C@@]3(C)CC[C@H]4[C@H](C)CC[C@@H]1[C@@]24OO3`, the concentration for half-maximal inhibition (IC50) in data set [1] is 16.7 nM; on Bcl-2-like protein 1, > 1000 nM. Moreover, in the data set listed under Homo sapiens, the Ratio IC50 is > 59.9.
Take `C[C@H]1[C@@H](CC(=O)N2CCN(c3ccc(C(=O)NS(=O)(=O)c4ccc(NCC5CCOCC5)c([N+](=O)[O-])c4)c(Oc4cnc5[nH]ccc5c4)c3)CC2)O[C@@H]2O[C@@]3(C)CC[C@H]4[C@H](C)CC[C@@H]1[C@@]24O3`: the IC50 in data set [1] is 3.5 nM; in the data set with RS4-11, > 1000 nM; on Bcl-2-like protein 1, 270 nM; in the data set on Toledo, > 1000 nM. In addition, the Ratio IC50 in the data set listed under Homo sapiens was determined as 77.2.
Take `C[C@@H]1CC[C@H]2[C@@H](C)C(OCCN3CCN(c4ccc(C(=O)NS(=O)(=O)c5ccc(NCC6CCOCC6)c([N+](=O)[O-])c5)c(Oc5cnc6[nH]ccc6c5)c4)C[C@@H]3CO)O[C@@H]3O[C@@]4(C)CC[C@@H]1[C@]32OO4` (stereo partly drawn): the half-maximal inhibitory concentration (IC50) in data set [1] is 28.7 nM; with RS4-11 it was > 1000 nM; at Bcl-2-like protein 1 it was > 1000 nM; in the data set with Toledo, > 1000 nM. Further, the Ratio IC50 in the data set filed under Homo sapiens was found to be 34.8.
Take `C[C@@H]1CC[C@H]2[C@@](C)(O)[C@@H](OCCN3CCN(c4ccc(C(=O)NS(=O)(=O)c5ccc(NCC6CCOCC6)c([N+](=O)[O-])c5)c(Oc5cnc6[nH]ccc6c5)c4)CC3)O[C@@H]3O[C@@]4(C)CC[C@@H]1[C@]32OO4`: the concentration for half-maximal inhibition (IC50) in data set [1] turned out to be 86.5 nM; at Bcl-2-like protein 1, 287 nM. In addition, the Ratio IC50 in the data set filed under Homo sapiens is 3.3.
Turning to `C[C@H]1[C@@H](CC(=O)N2CCN(c3ccc(C(=O)NS(=O)(=O)c4ccc(NCC5CCOCC5)c([N+](=O)[O-])c4)c(Oc4cnc5[nH]ccc5c4)c3)CC2)O[C@@H]2O[C@]3(C)O[C@]24[C@H]1CC[C@@H](C)[C@@H]4C[C@H]3O`, the IC50 was 50.1 nM in [1], > 1000 nM with RS4-11, 765 nM on Bcl-2-like protein 1 and > 1000 nM with Toledo. In the data set listed under Homo sapiens, the Ratio IC50 came to 15.3.
As for `C[C@H]1[C@@H](OCCN2CCN(c3ccc(C(=O)NS(=O)(=O)c4ccc(NCC5CCOCC5)c([N+](=O)[O-])c4)c(Oc4cnc5[nH]ccc5c4)c3)CC2)O[C@@H]2O[C@@]3(C)CC[C@H]4[C@H](C)CC[C@@H]1[C@@]24O3`, the half-inhibitory concentration (IC50) in [1] worked out at 2.2 nM; in the data set with RS4-11, 4400 nM; at Bcl-2-like protein 1, 624 nM; in the data set with Toledo, 9700 nM. Besides, the Ratio IC50 in the data set listed under Homo sapiens was 280.
The like results for `C[C@H]1[C@@H](CCN2CCN(c3ccc(C(=O)NS(=O)(=O)c4ccc(NCC5CCOCC5)c([N+](=O)[O-])c4)c(Oc4cnc5[nH]ccc5c4)c3)CC2)O[C@@H]2O[C@@]3(C)CC[C@H]4[C@H](C)CC[C@@H]1[C@@]24O3` were, in that order, 1.8 nM, 1300 nM, > 1000 nM, 2600 nM and > 546.
In the case of `C[C@H]1[C@@H](OCCN2CCN(c3ccc(C(=O)NS(=O)(=O)c4ccc(NCC5CCOCC5)c([N+](=O)[O-])c4)c(Oc4cnc5[nH]ccc5c4)c3)CC2)O[C@@H]2O[C@]3(C)O[C@]24[C@H]1CC[C@@H](C)[C@@H]4C[C@H]3O`, the results for the half-inhibitory concentration (IC50) (in data set [1]; at Bcl-2-like protein 1) were 31.9 nM and > 1000 nM, respectively. Further, the Ratio IC50 in the data set listed under Homo sapiens was > 31.3.
For `C[C@@H]1CC[C@@H]2[C@]34OO[C@](C)(CC[C@@H]13)O[C@H]4O[C@]2(C)C(=O)N1CCN(c2ccc(C(=O)NS(=O)(=O)c3ccc(NCC4CCOCC4)c([N+](=O)[O-])c3)c(Oc3cnc4[nH]ccc4c3)c2)CC1`, the IC50 in data set [1] stood at 13 nM; on Bcl-2-like protein 1, 512 nM. Also, in the data set listed under Homo sapiens, the Ratio IC50 came to 39.2.
For `CC1(C)CCC(CN2CCN(c3ccc(C(=O)NS(=O)(=O)c4ccc(NCC5CCOCC5)c([N+](=O)[O-])c4)c(Oc4cnc5[nH]ccc5c4)c3)CC2)=C(c2ccc(Cl)cc2)C1` [VENETOCLAX], the figures for the IC50 in the data set on RS4-11 and in the data set with Toledo were 6 nM and 11 nM, respectively.
Turning to `C[C@@H]1CC[C@H]2[C@@H](C)C(OCCNC3CCN(c4ccc(C(=O)NS(=O)(=O)c5ccc(NCC6CCOCC6)c([N+](=O)[O-])c5)c(Oc5cnc6[nH]ccc6c5)c4)CC3)O[C@@H]3O[C@@]4(C)CC[C@@H]1[C@]32OO4` (stereo partly drawn), the concentration for half-maximal inhibition (IC50) is 1.9 nM in [1], > 1000 nM with RS4-11, > 1000 nM on Bcl-2-like protein 1 and > 1000 nM in the data set on Toledo. Further, in the data set filed under Homo sapiens, the Ratio IC50 was > 526.

The term IC50 denotes the concentration at which inhibition is half-maximal. High values mean a need for much substance, low ones inhibition by little substance. A word on the efflux ratio: it is a quotient of directional permeabilities that is used to spot active efflux. One may read the Papp B→A as how fast a substance crosses the layer from the basolateral side. One may read the Papp A→B as the apparent permeability from the apical to the basolateral side of a cell layer.

The values are drawn from ChEMBL document CHEMBL4261603, “Development of high potent and selective Bcl-2 inhibitors bearing the structural elements of natural product artemisinin” (Eur J Med Chem, 2018).
